Converted amounts (≈) assume the structure as drawn.
Columns and labels:
[1] = system: LPS-induced NF-κB activation in RAW264.7 cells; test: Inhibition of LPS-induced NF-κB activation in RAW264.7 cells (luciferase reporter gene assay); type: cell-based; details: for Inhibitory activity against LPS-induced NF-κB activation: compounds at 10 μM, 5 μg/mL LPS for 8 h; for IC50: Mus musculus, luciferase reporter
Protocol: The inhibitory activities of LPS-induced NF-κB activation in RAW264.7 cells was evaluated as detected by luciferase reporter gene assay as described previously. In brief, the RAW264.7 cells stably transfected with a luciferase reporter gene were plated in 96-well plates and then pretreated with testd compounds (10 μM) and BAY11-7082 (NF-κB inhibitor as positive control, 5 μM, Sigma-Aldrich) for 30 min, followed by 5 μg/mL LPS stimulation for 8 h. Cells were harvested, and luciferase activities of the triplicate tests were measured using the luciferase assay system (Promega, Madison, WI, USA).

[2] = system: methicillin-resistant Staphylococcus aureus (MRSA); test: Antibacterial activity against MRSA (broth microdilution); type: cell-based
Protocol: The cytotoxicity of 1–8 and 10–15 against the A549 cell line was preliminarily evaluated via the MTT method as reported in our previous study, and the antibacterial activities of 1–15 against six bacterial strains, Acinetobacter baumannii (ATCC 19606), Staphylococcus aureus (ATCC 29213), Enterococcus faecalis (ATCC 29212), Klebsiella pneumoniae (ATCC 13883), MRSA, and Escherichia coli (ATCC 25922), were evaluated using a modification of the broth microdilution method.

[3] = Cytotoxicity against A549 cell line (MTT method); type: cell-based; details: human, A549 cells, read-out: Cytotoxic Activities A549 (IC50)
[4] = molecular target: acetylcholinesterase (AChE) (Homo sapiens, UniProt P22303); test: AChE inhibitory activity (modified Ellman method); type: biochemical; details: 0.1 U/mL AChE, pH 8.0, 30 °C; read-out: AChE inhibition IC50
Protocol: AChE inhibitory activity was evaluated in vitro according to the modified Ellman method. Briefly, 0.1 U/mL AChE solution was prepared by dissolving in phosphate buffer (pH 8.0). The test sample and enzyme buffer were mixed in 96-well plates and incubated for 20 min at 30 °C. Then, 5,5′-dithiobis (2-nitrobenzoic acid) and acetylthiocholine iodide were added, and the enzyme reaction was allowed to proceed for 30 min at 30 °C. AChE activity was determined by measuring the degradation of acetylthiocholine iodide to thiocholine and acetic acid at 405 nm using a microplate reader.

[5] = system: RANKL-induced osteoclast differentiation in bone marrow macrophages cells (BMMCs); test: RANKL-induced osteoclast differentiation in BMMCs (TRAP staining); type: cell-based; details: 5 μM, 3 days, TRAP-positive multinucleated cells
Protocol: Then, the cells were fixed and stained for TRAP activity and the images were photographed using an inverted microscope (Nikon, Tokyo, Japan). Data are expressed as the mean ± SD and analyzed using GraphPad Prism 7.0 software (GraphPad, San Diego, CA, USA). Statistical differences among groups were performed using one-way analysis of variance with a Bonferroni post-hoc test. A p-value of < 0.05 was considered statistically significant.

Chain of acetylcholinesterase (AChE) (P22303 32-614, species assumed): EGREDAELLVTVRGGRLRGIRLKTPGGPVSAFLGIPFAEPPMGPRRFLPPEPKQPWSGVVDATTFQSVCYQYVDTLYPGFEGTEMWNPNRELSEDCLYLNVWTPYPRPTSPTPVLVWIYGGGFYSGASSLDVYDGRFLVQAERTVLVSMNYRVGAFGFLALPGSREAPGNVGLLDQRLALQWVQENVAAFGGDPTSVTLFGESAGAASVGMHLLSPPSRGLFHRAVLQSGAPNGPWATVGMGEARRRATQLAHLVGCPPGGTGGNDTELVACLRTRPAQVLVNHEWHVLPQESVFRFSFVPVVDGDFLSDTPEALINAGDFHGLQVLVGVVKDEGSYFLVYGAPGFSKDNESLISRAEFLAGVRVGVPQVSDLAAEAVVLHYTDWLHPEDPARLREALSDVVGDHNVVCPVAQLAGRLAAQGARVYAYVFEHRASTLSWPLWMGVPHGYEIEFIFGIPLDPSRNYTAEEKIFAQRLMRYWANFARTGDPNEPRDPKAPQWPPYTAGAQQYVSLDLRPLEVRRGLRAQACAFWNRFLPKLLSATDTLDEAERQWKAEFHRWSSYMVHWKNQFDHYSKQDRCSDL

Compound: C/C=C/C(=O)Cc1cc(O)c(C)c(O)c1C=O [Compound 1, (E)-2,4-dihydroxy-3-methyl-6-(2-oxopent-3-en-1-yl) benzaldehyde]
- Inhibitory activity against LPS-induced NF-κB activation [1]: obvious inhibitory activities

Compound: Cc1cc(=O)c2c(O)c(C)c(O)cc2o1 [Compound 2, eugenitol]
- MIC ([2]; Staphylococcus aureus, read-out: Antibacterial Activities MRSA (MIC)): 485 µM (≈ 100 µg/mL)

Compound: CCCCCCCc1c(O)cc(CC=C(C)C)c(O)c1C=O [Compound 3, flavoglaucin]
- IC50 [3]: 22.2 µM
- IC50 [4]: 23.9 µM

Compound: C/C=C/C=C/CCc1c(O)cc(CC=C(C)C)c(O)c1C=O [Compound 4, isodihydroauroglaucin]
- IC50 [4]: 490 µM

Compound: CCCCC/C=C/c1c(O)cc(CC=C(C)C)c(O)c1C=O [Compound 5, tetrahydroauroglaucin]
- IC50 [4]: 39.9 µM

Compound: CCC/C=C/C=C/c1c(O)cc(CC=C(C)C)c(O)c1C=O [Compound 6, dihydroauroglaucin]
- IC50 [4]: 18.6 µM

Compound: C=CC(C)(C)c1[nH]c2ccccc2c1/C=C1\NC(=O)C(=O)NC1=O [Compound 10, neoechinulin E]
- Inhibitory activity against LPS-induced NF-κB activation [1]: obvious inhibitory activities

Compound: C=CC(C)(C)c1[nH]c2ccccc2c1/C=C1\NC(=O)C(C)(OC)NC1=O (stereo not drawn) [Compound 11, variecolorin H]
- IC50 [1]: 19.2 µM
- Inhibitory activity against LPS-induced NF-κB activation [1]: obvious inhibitory activities
- Effect on RANKL-induced osteoclast differentiation [5]: suppressed RANKL-induced osteoclast differentiation

Compound: C=CC(C)(C)c1[nH]c2ccccc2c1/C=c1\[nH]c(=O)c(=C)[nH]c1=O [Compound 14, neoechinulin B]
- IC50 [1]: 8.7 µM
- Inhibitory activity against LPS-induced NF-κB activation [1]: obvious inhibitory activities
- Effect on RANKL-induced osteoclast differentiation [5]: suppressed RANKL-induced osteoclast differentiation

Compound: Gentamycin [reference compound]
- Antibacterial Activities MRSA (MIC, μM) [2]: 1.4 µM

Source: paper PMC8399180, “Bioactive Polyketide and Diketopiperazine Derivatives from the Mangrove-Sediment-Derived Fungus Aspergillus sp. SCSIO41407” (Molecules, 2021)
